# According to PMC6199744, “Development of Chemical Proteomics for the Folateome and Analysis of the Kinetoplastid Folateome” (ACS Infectious Diseases, 2018):
# Like-named read-outs stand apart in the source and are kept apart here.
# What was measured:
# Format in all cases: binding
# [1] = target: T1, HeLa cell extract proteins (Homo sapiens, UniProt O95197)
# T1 construct: endogenous in cells; host or cells: HeLa cell extract
# T1 sequence (O95197 1-1032): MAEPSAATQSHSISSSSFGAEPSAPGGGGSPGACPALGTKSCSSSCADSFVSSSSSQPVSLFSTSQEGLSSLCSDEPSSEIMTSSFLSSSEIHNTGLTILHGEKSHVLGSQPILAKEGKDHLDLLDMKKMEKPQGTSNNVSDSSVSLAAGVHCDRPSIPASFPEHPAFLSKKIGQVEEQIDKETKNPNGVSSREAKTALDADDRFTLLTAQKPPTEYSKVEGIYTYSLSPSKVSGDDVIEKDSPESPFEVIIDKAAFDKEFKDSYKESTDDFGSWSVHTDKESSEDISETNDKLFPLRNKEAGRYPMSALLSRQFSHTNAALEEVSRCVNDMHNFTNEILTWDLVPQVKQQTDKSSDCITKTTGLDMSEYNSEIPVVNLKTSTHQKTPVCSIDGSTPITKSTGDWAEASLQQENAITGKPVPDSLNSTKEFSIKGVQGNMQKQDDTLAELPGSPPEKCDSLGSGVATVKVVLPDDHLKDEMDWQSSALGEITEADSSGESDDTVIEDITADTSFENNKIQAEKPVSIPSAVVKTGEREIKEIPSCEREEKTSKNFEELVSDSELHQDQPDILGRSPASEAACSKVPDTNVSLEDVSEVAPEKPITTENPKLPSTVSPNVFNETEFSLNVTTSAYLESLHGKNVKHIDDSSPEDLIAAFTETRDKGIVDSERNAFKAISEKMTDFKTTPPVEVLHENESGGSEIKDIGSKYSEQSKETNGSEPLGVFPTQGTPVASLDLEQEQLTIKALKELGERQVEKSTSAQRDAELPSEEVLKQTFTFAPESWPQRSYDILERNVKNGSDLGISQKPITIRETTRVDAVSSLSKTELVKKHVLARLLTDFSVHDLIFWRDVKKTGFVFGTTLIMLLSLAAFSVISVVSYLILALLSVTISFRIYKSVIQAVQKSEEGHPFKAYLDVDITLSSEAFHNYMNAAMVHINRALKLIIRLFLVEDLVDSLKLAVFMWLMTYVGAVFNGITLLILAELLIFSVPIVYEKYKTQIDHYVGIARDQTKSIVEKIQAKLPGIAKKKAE
# [2] = target: T2, HeLa cell extract proteins (Homo sapiens, UniProt P04080)
# T2 construct: endogenous in cells; host or cells: HeLa cell extract
# T2 sequence (P04080 1-98): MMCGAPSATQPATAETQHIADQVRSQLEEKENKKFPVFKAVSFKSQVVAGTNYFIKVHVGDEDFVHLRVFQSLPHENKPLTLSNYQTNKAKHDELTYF
# [3] = target: T3, HeLa cell extract proteins (Homo sapiens, UniProt P11021)
# T3 construct: endogenous in cells; host or cells: HeLa cell extract
# [4] = target: T4, HeLa cell extract proteins (Homo sapiens, UniProt P31948)
# T4 construct: endogenous in cells; host or cells: HeLa cell extract
# [5] = target: T5, HeLa cell extract proteins (Homo sapiens, UniProt P39656)
# T5 construct: endogenous in cells; host or cells: HeLa cell extract
# T5 sequence (P39656 43-456): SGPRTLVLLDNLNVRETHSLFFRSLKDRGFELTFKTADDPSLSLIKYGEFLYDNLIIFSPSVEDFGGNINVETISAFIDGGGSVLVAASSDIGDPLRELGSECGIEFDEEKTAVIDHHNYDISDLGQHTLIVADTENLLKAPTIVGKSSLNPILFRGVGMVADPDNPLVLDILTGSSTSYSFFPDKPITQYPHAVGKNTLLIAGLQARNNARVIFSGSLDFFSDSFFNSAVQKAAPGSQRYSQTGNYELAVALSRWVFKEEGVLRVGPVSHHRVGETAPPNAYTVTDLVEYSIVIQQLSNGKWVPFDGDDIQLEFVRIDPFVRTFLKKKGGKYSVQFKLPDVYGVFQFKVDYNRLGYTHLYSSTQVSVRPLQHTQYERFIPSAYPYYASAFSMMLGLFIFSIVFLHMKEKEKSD
# [6] = target: T6, HeLa cell extract proteins (Homo sapiens, UniProt P42345)
# T6 construct: endogenous in cells; host or cells: HeLa cell extract
# [7] = target: T7, HeLa cell extract proteins (Homo sapiens, UniProt P51398)
# T7 construct: endogenous in cells; host or cells: HeLa cell extract
# [8] = target: T8, HeLa cell extract proteins (Homo sapiens, UniProt P55010)
# T8 construct: endogenous in cells; host or cells: HeLa cell extract
# [9] = target: T9, HeLa cell extract proteins (Homo sapiens, UniProt Q96EY1)
# T9 construct: endogenous in cells; host or cells: HeLa cell extract
# T9 sequence (Q96EY1 1-480): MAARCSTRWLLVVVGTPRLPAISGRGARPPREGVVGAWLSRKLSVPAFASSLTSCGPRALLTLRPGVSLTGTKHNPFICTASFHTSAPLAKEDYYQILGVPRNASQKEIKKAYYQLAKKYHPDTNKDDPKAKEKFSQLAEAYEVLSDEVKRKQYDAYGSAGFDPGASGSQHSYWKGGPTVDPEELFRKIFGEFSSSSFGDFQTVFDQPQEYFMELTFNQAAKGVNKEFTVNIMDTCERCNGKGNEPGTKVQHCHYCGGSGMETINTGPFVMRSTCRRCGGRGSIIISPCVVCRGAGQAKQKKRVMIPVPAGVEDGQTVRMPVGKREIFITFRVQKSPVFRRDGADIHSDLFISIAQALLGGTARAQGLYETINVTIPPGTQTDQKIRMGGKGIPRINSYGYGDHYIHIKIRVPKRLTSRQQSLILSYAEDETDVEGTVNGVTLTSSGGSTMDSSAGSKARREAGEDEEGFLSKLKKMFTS
# [10] = target: T10, HeLa cell extract proteins (Homo sapiens, UniProt Q9Y6E2)
# T10 construct: endogenous in cells; host or cells: HeLa cell extract
# T10 sequence (Q9Y6E2 1-419): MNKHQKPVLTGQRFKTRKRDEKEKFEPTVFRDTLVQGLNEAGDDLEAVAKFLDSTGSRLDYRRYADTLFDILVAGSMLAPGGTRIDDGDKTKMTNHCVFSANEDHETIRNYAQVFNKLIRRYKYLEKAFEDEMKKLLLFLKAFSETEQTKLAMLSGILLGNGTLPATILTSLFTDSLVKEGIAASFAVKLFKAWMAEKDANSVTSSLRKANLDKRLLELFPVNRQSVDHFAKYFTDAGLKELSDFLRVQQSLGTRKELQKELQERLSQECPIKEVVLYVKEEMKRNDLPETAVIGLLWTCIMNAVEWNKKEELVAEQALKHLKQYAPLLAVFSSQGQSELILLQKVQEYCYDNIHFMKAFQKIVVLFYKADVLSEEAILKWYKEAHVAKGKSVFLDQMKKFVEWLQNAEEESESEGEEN
# T8 sequence (P55010 whole entry): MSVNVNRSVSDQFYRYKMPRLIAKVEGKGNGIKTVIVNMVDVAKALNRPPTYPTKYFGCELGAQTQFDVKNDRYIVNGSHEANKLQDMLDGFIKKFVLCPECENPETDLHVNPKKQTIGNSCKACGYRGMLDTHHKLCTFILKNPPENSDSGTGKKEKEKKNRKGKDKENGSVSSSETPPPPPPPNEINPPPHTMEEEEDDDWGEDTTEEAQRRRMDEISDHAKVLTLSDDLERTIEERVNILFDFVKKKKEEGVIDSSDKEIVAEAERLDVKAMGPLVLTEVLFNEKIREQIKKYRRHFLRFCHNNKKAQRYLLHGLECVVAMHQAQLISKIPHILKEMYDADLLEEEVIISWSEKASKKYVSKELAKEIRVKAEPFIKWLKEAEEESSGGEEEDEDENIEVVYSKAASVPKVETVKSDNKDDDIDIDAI
# T3 sequence (P11021 19-654): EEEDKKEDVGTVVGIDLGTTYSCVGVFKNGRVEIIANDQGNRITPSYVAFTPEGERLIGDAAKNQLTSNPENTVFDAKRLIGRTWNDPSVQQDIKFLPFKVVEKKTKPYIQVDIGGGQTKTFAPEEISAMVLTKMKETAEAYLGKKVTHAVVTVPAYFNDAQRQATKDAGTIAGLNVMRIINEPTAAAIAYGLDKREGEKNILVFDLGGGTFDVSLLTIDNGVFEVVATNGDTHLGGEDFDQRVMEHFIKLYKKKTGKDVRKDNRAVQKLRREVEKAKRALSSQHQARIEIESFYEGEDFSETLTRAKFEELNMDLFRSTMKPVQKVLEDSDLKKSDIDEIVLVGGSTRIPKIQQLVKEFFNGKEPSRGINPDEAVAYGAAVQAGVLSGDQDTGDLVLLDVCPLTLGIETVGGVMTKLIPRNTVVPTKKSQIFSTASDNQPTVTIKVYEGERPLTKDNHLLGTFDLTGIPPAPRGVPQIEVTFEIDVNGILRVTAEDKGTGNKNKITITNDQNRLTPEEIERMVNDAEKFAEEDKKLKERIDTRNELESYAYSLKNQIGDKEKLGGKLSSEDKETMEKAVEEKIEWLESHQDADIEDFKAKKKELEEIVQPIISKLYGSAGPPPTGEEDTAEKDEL
# T4 sequence (P31948 whole entry): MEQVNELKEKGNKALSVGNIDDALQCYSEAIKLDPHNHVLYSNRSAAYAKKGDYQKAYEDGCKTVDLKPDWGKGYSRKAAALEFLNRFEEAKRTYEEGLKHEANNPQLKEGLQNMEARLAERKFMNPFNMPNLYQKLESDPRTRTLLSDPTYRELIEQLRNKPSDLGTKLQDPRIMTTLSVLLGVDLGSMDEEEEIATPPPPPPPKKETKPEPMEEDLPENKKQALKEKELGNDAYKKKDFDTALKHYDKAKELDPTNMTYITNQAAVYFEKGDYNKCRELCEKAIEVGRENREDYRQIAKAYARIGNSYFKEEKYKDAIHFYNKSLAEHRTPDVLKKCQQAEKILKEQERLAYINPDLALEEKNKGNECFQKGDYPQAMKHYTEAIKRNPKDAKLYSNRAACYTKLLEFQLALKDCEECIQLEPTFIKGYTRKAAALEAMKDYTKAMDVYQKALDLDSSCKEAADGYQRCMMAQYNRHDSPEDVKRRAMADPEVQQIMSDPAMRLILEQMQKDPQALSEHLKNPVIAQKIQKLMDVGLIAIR
Structure (SMILES),"fold changes relative to vehicle control ([1]; protein RTN3, HeLa)","fold changes relative to vehicle control ([2]; HeLa, protein CSTB)","fold changes relative to vehicle control ([3]; HeLa, captured protein HSPA5)","fold changes relative to vehicle control ([4]; protein STIP1, HeLa)","fold changes relative to vehicle control ([5]; HeLa, captured protein DDOST)","fold changes relative to vehicle control ([6]; HeLa, captured protein mTOR)","fold changes relative to vehicle control ([7]; HeLa, captured protein DAP3)","fold changes relative to vehicle control ([8]; HeLa, captured protein EIF5)","fold changes relative to vehicle control ([9]; protein DNAJA3, HeLa)","fold changes relative to vehicle control ([10]; HeLa, protein BZW2)",fold changes relative to vehicle control [8],"fold changes relative to vehicle control ([3]; protein HSPA5, HeLa)","fold changes relative to vehicle control ([5]; captured protein DDOST, HeLa)","fold changes relative to vehicle control ([6]; captured protein mTOR, HeLa)","fold changes relative to vehicle control ([7]; protein DAP3, HeLa)","fold changes relative to vehicle control ([9]; captured protein DNAJA3, HeLa)","fold changes relative to vehicle control ([10]; protein BZW2, HeLa)",other results
"Nc1nc2c(c(=O)[nH]1)N(C=O)C(CNc1ccc(C(=O)N[C@@H](CCC(=O)O)C(=O)O)cc1)CN2 (stereo partly shown) [LEU, leucovorin]",0.97,1.07,1.06,0.97,0.8,1.05,0.98,0.98,0.8,0.99,,,,,,,,
"Nc1nc2[nH]cc(CCc3ccc(C(=O)N[C@@H](CCC(=O)O)C(=O)O)cc3)c2c(=O)[nH]1 [PTX, pemetrexed]",,,,,,,,,,,1.05,,,,,,,fold changes relative to vehicle control [1]: 0.85; fold changes relative to vehicle control [2]: 1.26; fold changes relative to vehicle control [3]: 1.03; fold changes relative to vehicle control [4]: 1.01; fold changes relative to vehicle control [5]: 0.85; fold changes relative to vehicle control [6]: 0.99; fold changes relative to vehicle control [7]: 0.9; fold changes relative to vehicle control [9]: 0.84; fold changes relative to vehicle control [10]: 0.98
CCCCCCOc1ccc(Cc2cnc(N)nc2N)cc1 [compound 1],1,1.08,,1.02,,,,,,,1.24 fold,0.96,0.81,0.89,1.27,0.84,1.11,
CCCCCCOc1cccc(Cc2cnc(N)nc2N)c1 [compound 2],1.14,0.99,,1.49,,,,,,,,1.12,1.1,1.1,1.16,1.16,1.57,"fold changes relative to vehicle control ([8]; HeLa, protein EIF5 (EUKARYOTIC TRANSLATION INITIATION FACTOR 5.)): 2.16 fold"
Nc1nc2cccc(-c3ccccc3)c2n1Cc1ccc(Cl)c(Cl)c1 [compound 3],0.9,1.17,,0.87,,,,,,,0.91 fold,0.99,1.05,1.01,1,1.05,0.93,
NCCOCCOCC(=O)Nc1nc2ncc(CNc3ccc(C(=O)NC(CCC(=O)O)C(=O)O)cc3)nc2c(=O)[nH]1 (stereo not shown) [compound 6],0.94,1.29,1,1.13,0.95,1.15,0.84,1.64,1.2,1.1,,,,,,,,
NCCCNc1ccc(C(=O)NC(CCC(=O)O)C(=O)O)cc1 (stereo not shown) [compound 7],0.84,1.24,1,0.92,1.07,1.2,0.94,0.94,1.06,1.12,,,,,,,,
